The results in this text go back to ChEMBL document CHEMBL1148935, “Mechanism-based inactivation of COX-1 by red wine m-hydroquinones: a structure-activity relationship study” (J Nat Prod, 2004).

For test [1], the target named is T1, Prostaglandin G/H synthase 1 (Ovis aries, UniProt P05979).
T1 sequence (P05979 whole entry): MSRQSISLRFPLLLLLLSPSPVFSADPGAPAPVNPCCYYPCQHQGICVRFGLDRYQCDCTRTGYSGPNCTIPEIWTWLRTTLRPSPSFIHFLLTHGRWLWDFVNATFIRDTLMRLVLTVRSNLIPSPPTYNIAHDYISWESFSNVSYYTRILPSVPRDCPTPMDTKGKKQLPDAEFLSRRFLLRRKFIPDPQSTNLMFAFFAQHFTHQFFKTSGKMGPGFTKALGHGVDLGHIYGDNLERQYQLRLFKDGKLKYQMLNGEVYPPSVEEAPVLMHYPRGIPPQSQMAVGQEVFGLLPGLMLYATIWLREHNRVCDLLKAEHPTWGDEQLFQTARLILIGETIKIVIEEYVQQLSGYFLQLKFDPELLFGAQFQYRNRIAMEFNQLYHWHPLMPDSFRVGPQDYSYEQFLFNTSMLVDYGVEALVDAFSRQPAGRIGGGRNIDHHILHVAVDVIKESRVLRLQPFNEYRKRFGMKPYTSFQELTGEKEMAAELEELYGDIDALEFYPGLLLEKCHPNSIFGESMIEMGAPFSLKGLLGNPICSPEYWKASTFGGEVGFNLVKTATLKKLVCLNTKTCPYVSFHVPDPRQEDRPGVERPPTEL
As to the kind of experiment: Inhibition of peroxidase activity of COX1 in heep seminal vesicle by TMPD assay. It is filed as tissue-based.

Test [2] addresses T1, Prostaglandin G/H synthase 1. As to the kind of experiment: Inhibition of cyclooxygenase activity of COX1 in sheep seminal vesicle in presence of 1 mM phenol by cyclooxygenase assay. The class given is tissue-based.
For test [3], the target named is T2, Prostaglandin G/H synthase 1 (Ovis aries) (UniProt P05979).
T2 sequence (whole entry): T1 sequence (P05979 whole entry)
Put plainly: Effect on COX1 activity in sheep seminal vesicle at 5 uM by TMPD peroxidase assay. The class given is tissue-based.

Test [4] concerns the target T1, Prostaglandin G/H synthase 1. As to the kind of experiment: Binding affinity to COX1 in sheep seminal vesicle.
Test [5] addresses T2, Prostaglandin G/H synthase 1 (Ovis aries). As to the kind of experiment: Inactivation of holo-COX1 in sheep seminal vesicle assessed as drug oxidization at 2.5 to 4 nmol by RP-HPLC in presence of hydrogen peroxide.
In test [6] the target is T3, Prostaglandin G/H synthase 2 (Homo sapiens) (UniProt P35354).
T3 sequence (whole entry): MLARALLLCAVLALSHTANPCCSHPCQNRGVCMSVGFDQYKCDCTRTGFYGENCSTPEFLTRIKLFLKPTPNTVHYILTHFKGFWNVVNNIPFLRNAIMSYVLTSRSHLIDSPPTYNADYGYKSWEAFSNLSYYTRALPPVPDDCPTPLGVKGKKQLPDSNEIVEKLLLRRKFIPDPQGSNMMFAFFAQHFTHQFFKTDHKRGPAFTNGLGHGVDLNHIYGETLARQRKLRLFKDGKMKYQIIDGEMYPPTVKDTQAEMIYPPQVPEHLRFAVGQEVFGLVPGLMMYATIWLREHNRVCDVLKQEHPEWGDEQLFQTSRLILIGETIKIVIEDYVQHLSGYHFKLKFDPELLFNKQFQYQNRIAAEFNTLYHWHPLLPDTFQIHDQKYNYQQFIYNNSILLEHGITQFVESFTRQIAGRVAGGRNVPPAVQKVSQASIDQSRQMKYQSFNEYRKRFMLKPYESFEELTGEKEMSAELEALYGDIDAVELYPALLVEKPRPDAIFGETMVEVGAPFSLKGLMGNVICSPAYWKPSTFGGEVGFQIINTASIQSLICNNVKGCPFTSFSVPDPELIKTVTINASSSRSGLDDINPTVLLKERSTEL
As to the kind of experiment: Inhibition of human COX2 expressed in baculovirus infected Sf-21 insect cells.

Activity calls are given as the source filed them. The calls are words filed in the database; no cut-off is given here.

`Oc1ccc(/C=C/c2cc(O)cc(O)c2)cc1` [RESVERATROL]: the IC50 (in general, the concentration at which inhibition is half-maximal) in test [1] was found to be 2.8 µM; in test [2], 67.3 µM. Besides, in test [3], the result was inactive. Also, the Kd (commonly the concentration at which binding is half-saturated) in test [4] turned out to be 11.7 µM.

With `Oc1cc(O)c2c(c1)O[C@H](c1ccc(O)c(O)c1)[C@@H](O)C2` [CIANIDANOL], the half-maximal inhibitory concentration (IC50) in test [1] is 4.1 µM; in test [2], 20.2 µM. Further, the outcome in test [3] and in test [6] was inactive. The Activity in test [5] turned out to be 7%. Also, binding in test [4] was characterised by a dissociation constant (Kd) of 40.7 µM.

`Oc1cc(O)c2c(c1)O[C@H](c1ccc(O)c(O)c1)[C@H](O)C2` [(-)-EPICATECHIN]: the half-inhibitory concentration (IC50) in test [1] was found to be 2 µM; in test [2], 12.2 µM. In addition, the outcome in test [3] and in test [6] was inactive. The Activity in test [5] is 5%. Further, in test [4], the Kd was 25.9 µM.

On to `Oc1cc(O)c2c(c1)O[C@@H](c1ccc(O)c(O)c1)[C@@H](O)C2` [(+)-EPICATECHIN], for which the IC50 in test [1] amounted to 2.5 µM; in test [2], 12.8 µM. In addition, the result in test [3] and in test [6] was inactive. Besides, the Activity in test [5] amounted to 5%. The compound also came in with a Kd in test [4] of 25.1 µM.

`Oc1cccc(O)c1` [RESORCINOL]: the IC50 in test [1] stood at 3.6 µM; in test [2], 30.8 µM. Further, the outcome in test [3] was inactive. The Activity in test [5] came out at 5%. For the same compound, the Kd in test [4] was 86.9 µM.

Turning to `Oc1cc(O)c2c(c1)O[C@@H](c1ccc(O)c(O)c1)[C@H](O)C2` [(-)-CATECHIN], the IC50 stood at 5.3 µM in test [1] and 30.8 µM in test [2]. Moreover, the result in test [3] and in test [6] was inactive. In addition, in test [5], the Activity turned out to be 8%. Further, in test [4], the Kd was 48.7 µM.
